≈ marks a conversion by molar mass, not a printed value. Calls of active or inactive are those of the source. The rule behind the calls is not given here.
Experiments:
[1] = system: HeLa; assay: Reversal of drug-induced apoptosis in human HeLa cells in presence of caspase 8 inhibitor z-IETD after 12 hrs by Annexin-PI dual staining; type: functional
[2] = system: HeLa; assay: Cytotoxicity against human HeLa cells expressed as ratio of TRAIL-R2 gene expression in cells treated with drug at 5 ug/ml over control after 24 hrs; type: functional
[3] = system: HeLa; assay: Increase in AF016266 mRNA expression in human HeLa cells by RTPCR; type: functional
[4] = system: HeLa; assay: Cytotoxicity against human HeLa cells expressed as ratio of Cyr61 gene expression in cells treated with drug at 5 ug/ml over control after 24 hrs; type: functional
[5] = system: HeLa; assay: Induction of apoptosis in human HeLa cells assessed as accumulation at S phase after 12 hrs by flow cytometry; type: functional
[6] = system: HeLa; assay: Induction of apoptosis in human HeLa cells assessed as caspase 3 activity at 4 ug/ml; type: functional, cell-based; conditions: TDE = time-dependent effect
[7] = system: HeLa; assay: Increase in TRAIL-R2 protein level in human HeLa cells at 4 ug/ml after 24 hrs by Western blot; type: functional, cell-based
[8] = system: HeLa; assay: Induction of apoptosis in human HeLa cells assessed as cleavage of caspase 8 at 4 ug/ml after 12 hrs by Western blot; type: functional, cell-based
[9] = system: HeLa; assay: Induction of apoptosis in human HeLa cells assessed as accumulation at S phase after 24 hrs by flow cytometry; type: functional
[10] = system: DLD-1; assay: Upregulation of TRAIL-R2 protein in human DLD1/TRAIL-R cells at 8 ug/ml by Western blot; type: functional, cell-based
[11] = system: HeLa; assay: Reversal of drug-induced apoptosis in human HeLa cells expressing TRAIL-R2/Fc chimera protein after 12 hrs; type: functional, cell-based
[12] = system: HeLa; assay: Induction of apoptosis in human HeLa cells assessed as accumulation at G2/M phase after 24 hrs by flow cytometry; type: functional
[13] = system: HeLa; assay: Cytotoxicity against human HeLa cells expressed as ratio of RHAMM gene expression in cells treated with drug at 5 ug/ml over control after 24 hrs; type: functional
[14] = system: HeLa; assay: Cytotoxicity against human HeLa cells after 24 hrs by FMCA; type: functional, cell-based
[15] = system: HeLa; assay: Induction of apoptosis in human HeLa cells assessed as accumulation at G2/M phase after 12 hrs by flow cytometry; type: functional
[16] = system: HeLa; assay: Increase in TRAIL-R2 protein level in human HeLa cells at 8 ug/ml after 24 hrs by Western blot; type: functional, cell-based
[17] = system: DLD-1; assay: Cytotoxicity against human DLD1/TRAIL-R cells after 24 hrs; type: functional, cell-based; conditions: DLD-1, 24 h
[18] = system: DLD-1; assay: Cell viability in human DLD1/TRAIL-R cells at 8 ug/ml after 24 hrs in presence of TRAIL; type: functional
[19] = system: HeLa; assay: Induction of apoptosis in human HeLa cells assessed as cleavage of caspase 8 at 4 ug/ml after 6 hrs by Western blot; type: functional, cell-based
[20] = system: HeLa; assay: Induction of apoptosis in human HeLa cells assessed as early apoptotic cells at 4 ug/ml after 24 hrs by annexin V-FITC/PI staining; type: functional
[21] = system: HeLa; assay: Increase in NM_003607 mRNA expression in human HeLa cells by RTPCR; type: functional, cell-based
[22] = system: HeLa; assay: Induction of apoptosis in human HeLa cells assessed as accumulation at G1 phase after 6 hrs by flow cytometry; type: functional
[23] = system: HeLa; assay: Induction of apoptosis in human HeLa cells assessed as accumulation at S phase after 6 hrs by flow cytometry; type: functional
[24] = system: HeLa; assay: Induction of apoptosis in human HeLa cells assessed as accumulation at subG1 phase after 24 hrs by flow cytometry; type: functional
[25] = system: HeLa; assay: Induction of apoptosis in human HeLa cells assessed as accumulation at G1 phase after 12 hrs by flow cytometry; type: functional
[26] = system: HeLa; assay: Cytotoxicity against human HeLa cells expressed as ratio of MRCKalpha gene expression in cells treated with drug at 5 ug/ml over control after 24 hrs; type: functional
[27] = system: HeLa; assay: Induction of apoptosis in human HeLa cells assessed as accumulation at subG1 phase after 6 hrs by flow cytometry; type: functional
[28] = system: HeLa; assay: Induction of apoptosis in human HeLa cells assessed as early apoptotic cells at 4 ug/ml after 12 hrs by annexin V-FITC/PI staining; type: functional
[29] = system: HeLa; assay: Induction of apoptosis in human HeLa cells assessed as accumulation at subG1 phase after 12 hrs by flow cytometry; type: functional
[30] = system: HeLa; assay: Cell viability in human HeLa cells at 4 ug/ml after 24 hrs; type: functional
[31] = system: HeLa; assay: Induction of apoptosis in human HeLa cells assessed as late apoptotic cells at 4 ug/ml after 24 hrs by annexin V-FITC and PI staining; type: functional
[32] = system: HeLa; assay: Cell viability in human HeLa cells at 4 ug/ml after 24 hrs in presence of TRAIL; type: functional
[33] = system: HeLa; assay: Induction of apoptosis in human HeLa cells assessed as accumulation at G2/M phase after 6 hrs by flow cytometry; type: functional
[34] = system: DLD-1; assay: Upregulation of TRAIL-R2 protein in human DLD1/TRAIL-R cells at 4 ug/ml by Western blot; type: functional, cell-based
[35] = system: HeLa; assay: Induction of apoptosis in human HeLa cells assessed as accumulation at G1 phase after 24 hrs by flow cytometry; type: functional
[36] = system: DLD-1; assay: Cell viability in human DLD1/TRAIL-R cells at 8 ug/ml after 24 hrs; type: functional
[37] = system: HeLa; assay: Reversal of drug-induced apoptosis in human HeLa cells ain presence of caspase 9 inhibitor z-LEHD after 12 hrs by Annexin-PI dual staining; type: functional

SMILES: Cc1cc(O)c2c(c1)[C@H](C(C)C)Cc1cc3c(cc1-2)[C@@H](O)[C@@H](C(C)C)c1cc(C)cc(O)c1-3 [PARVIFLORENE F]
- Activity [1]: 2.2%
- Ratio [2]: 1.44
- Fold change [3]: 4.9
- Ratio [4]: 0.61
- Activity [5]: 10.3%
- Activity [6]: tde
- Activity [7]: Active
- Activity [8]: inactive
- Activity [9]: 5.5%
- Activity [10]: Active
- Activity [11]: Active
- Activity [12]: 15.3%
- Ratio [13]: 0.68
- IC50 [14]: 4.3 µg/mL (≈ 9.72 µM)
- Activity [15]: 16.6%
- Activity [16]: Active
- IC50 [17]: 9.2 µg/mL (≈ 20.8 µM)
- Activity [18]: 20%
- Activity [19]: Active
- Activity [20]: 41.2%
- Activity [21]: Dose-dependent effect
- Activity [22]: 56.1%
- Activity [23]: 17.3%
- Activity [24]: 26.1%
- Activity [25]: 41.6%
- Ratio [26]: 1.71
- Activity [27]: 10.9%
- Activity [28]: 52.7%
- Activity [29]: 31.5%
- Activity [30]: 44%
- Activity [31]: 22.9%
- Activity [32]: 16%
- Activity [33]: 15.6%
- Activity [34]: Active
- Activity [35]: 52.1%
- Activity [36]: 54%
- Activity [37]: 4%

Source: ChEMBL document CHEMBL1143147, “A novel sesquiterpenoid dimer parviflorene F induces apoptosis by up-regulating the expression of TRAIL-R2 and a caspase-dependent mechanism” (Bioorg Med Chem, 2008)
